The source made the active and inactive calls. The calls are words filed in the database; no cut-off is given here.
Columns and labels:
[1] = test system: Radical scavenging activity; assay: Antioxidant activity assessed as DPPH free radical scavenging; format: functional
[2] = biological target: Xanthine dehydrogenase/oxidase (Homo sapiens, UniProt P47989); assay: Inhibition of xanthine oxidase
[3] = test system: Radical scavenging activity; assay: Antioxidant activity assessed as DPPH free radical scavenging at 300 uM; format: functional
Escherichia coli = assay: Inhibition of oxygen free radical-induced DNA damage of Escherichia coli plasmid DNA pBR322 by agarose gel electrophoresis

Sequence of Xanthine dehydrogenase/oxidase (P47989 whole entry): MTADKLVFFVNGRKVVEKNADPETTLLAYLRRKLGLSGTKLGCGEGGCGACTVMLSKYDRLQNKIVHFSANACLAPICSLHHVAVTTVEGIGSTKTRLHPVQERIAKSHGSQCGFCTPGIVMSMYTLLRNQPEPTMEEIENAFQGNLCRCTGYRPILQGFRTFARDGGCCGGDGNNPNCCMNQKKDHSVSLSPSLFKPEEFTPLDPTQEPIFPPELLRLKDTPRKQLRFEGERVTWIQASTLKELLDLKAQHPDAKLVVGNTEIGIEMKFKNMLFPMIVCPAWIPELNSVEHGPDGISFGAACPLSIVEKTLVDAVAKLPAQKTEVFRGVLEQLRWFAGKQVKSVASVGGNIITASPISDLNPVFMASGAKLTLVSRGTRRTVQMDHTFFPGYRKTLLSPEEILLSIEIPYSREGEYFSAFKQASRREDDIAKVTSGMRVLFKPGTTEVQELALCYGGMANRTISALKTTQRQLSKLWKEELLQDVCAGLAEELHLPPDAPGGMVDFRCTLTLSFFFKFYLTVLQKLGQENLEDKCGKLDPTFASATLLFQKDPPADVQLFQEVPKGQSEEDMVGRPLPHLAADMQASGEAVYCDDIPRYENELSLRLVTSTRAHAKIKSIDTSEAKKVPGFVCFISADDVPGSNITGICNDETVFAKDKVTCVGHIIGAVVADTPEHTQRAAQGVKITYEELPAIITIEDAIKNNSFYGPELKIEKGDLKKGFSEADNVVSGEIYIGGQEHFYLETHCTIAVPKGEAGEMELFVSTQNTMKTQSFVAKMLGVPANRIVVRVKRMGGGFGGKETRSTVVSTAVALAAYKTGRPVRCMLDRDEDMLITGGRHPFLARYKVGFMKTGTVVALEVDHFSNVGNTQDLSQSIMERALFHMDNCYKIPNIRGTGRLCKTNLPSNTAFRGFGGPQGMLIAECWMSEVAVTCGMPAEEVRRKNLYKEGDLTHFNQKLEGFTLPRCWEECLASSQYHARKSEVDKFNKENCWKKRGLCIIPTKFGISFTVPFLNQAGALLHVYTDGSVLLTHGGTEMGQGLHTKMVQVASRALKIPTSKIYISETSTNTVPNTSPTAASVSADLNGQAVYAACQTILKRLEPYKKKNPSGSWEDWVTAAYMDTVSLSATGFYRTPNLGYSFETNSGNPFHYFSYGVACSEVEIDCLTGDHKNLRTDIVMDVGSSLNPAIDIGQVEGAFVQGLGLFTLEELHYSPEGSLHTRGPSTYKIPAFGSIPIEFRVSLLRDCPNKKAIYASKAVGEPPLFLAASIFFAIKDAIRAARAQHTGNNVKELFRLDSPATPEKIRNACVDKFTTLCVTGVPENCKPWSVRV

IC50 [1] [µM] | IC50 [2] [µM] | Structure (SMILES) | inhibition [3] [%] | Activity (Escherichia coli)
18.1 |  | Cc1c(C)c2c(c(C)c1O)CC[C@@](C)(CCCC(C)CCCC(C)CCCC(C)C)O2 (single isomer, unassigned) [ALPHA-TOCOPHEROL] |  | 
 | 42.1 | CCC(C)C(=O)C1=C(O)[C@]2(C[C@H]3[C@H](CC[C@@]3(C)O)[C@](C)(O)C2)C(=O)[C@](C)(CC=C(C)C)C1=O (some centres not stated) [HYPERIELLIPTONE HB] | 4.5 | Active
 | 42.1 | CCC(C)C(=O)C1=C(O)[C@@](C)(CC=C(C)C)C(=O)[C@@]2(C[C@H]3[C@H](CC[C@@]3(C)O)[C@](C)(O)C2)C1=O (some centres not stated) [HYPERIELLIPTONE HB] | 4.5 | Active

From ChEMBL document CHEMBL1157422, “Phloroglucinols with antioxidant activity and xanthonolignoids from the heartwood of Hypericum geminiflorum” (J Nat Prod, 2008)
